# Key:
# weeds [1] = test: Pre-emergence test (Example A), effect on weeds; format: in vivo; conditions: soil sprayed 24 hours after sowing, assessed after three weeks
# Experimental: To produce an expedient preparation of active substance, 1 part by weight of active substance is mixed with the stated amount of solvent, the stated amount of emulsifier is added and the concentrate is diluted with water to the required concentration.
# Seeds of the test plants are sown in normal soil. After 24 hours, the soil is sprayed with the active substance preparation in such a way that the respective desired application rate of active substance per unit area is achieved. The active substance concentration in the spray liquor is selected so that the respective required application rate of active substance is achieved with 1000 litres of water per hectare.
# After three weeks, the degree of damage to the plants is assessed in % damage by comparison with the development of the untreated control.
# weeds [2] = test: Post-emergence test (Example B), effect on weeds; format: in vivo; conditions: test plants 5-15 cm high sprayed, assessed after three weeks
# Experimental: To produce an expedient preparation of active substance, 1 part by weight of active substance is mixed with the stated amount of solvent, the stated amount of emulsifier is added, and the concentrate is diluted with water to the required concentration.
# The active substance preparation is used to spray test plants which are 5-15 cm high in such a way that the respective desired application rate of active substance per unit area is achieved. The concentration of the spray liquor is chosen so that the respective required application rates of active substance are achieved in 1000 l of water/ha.
# After three weeks, the degree of damage to the plants is assessed in % damage by comparison with the development of the untreated control. The meanings are:
# 0%=no effect (as untreated control)
# [3] = logP determination by HPLC on reversed phase column (C 18), EEC Directive 79/831 Annex V.A8; format: physicochemical; conditions: reversed phase C18 HPLC column; pH=2.3
# Experimental: Determination of the logP values indicated in Table 1 took place in accordance with EEC Directive 79/831 Annex V.A8 by HPLC (high performance liquid chromatography) on a reversed phase column (C 18). Temperature: 43° C. (a) Eluent for determination in the acidic range: 0.1% aqueous phosphoric acid, acetonitrile; linear gradient from 10% acetonitrile to 90% acetonitrile—corresponding measured results are marked with ^a) in Table 1. Calibration took place with unbranched alkan-2-ones (having 3 to 16 carbon atoms) whose logP values are known (determination of the logP values on the basis of the retention times by linear interpolation between two consecutive alkanones).
smiles,measurement,setting,value
"N#C/N=C1\SCCN1Cc1c(Cl)ccc(C(=O)C2C(=O)CCCC2=O)c1Cl [Example 1, 3-[2,6-dichloro-3-[(2,6-dioxocyclohexyl)carbonyl]benzyl]-1,3-thiazolidin-2-ylidenecyanamide]",effect on weeds (degree of damage vs untreated control),weeds [1],strong effect on weeds
same,effect on weeds (degree of damage vs untreated control),weeds [2],strong effect on weeds
"N#C/N=C1\SCCN1Cc1cc(C(F)(F)F)ccc1C(=O)C1C(=O)CCCC1=O [Example 2, 3-[2-[(2,6-dioxocyclohexyl)carbonyl]-5-trifluoromethyl-benzyl]-1,3-thiazolidin-2-ylidenecyanamide]",effect on weeds (degree of damage vs untreated control),weeds [1],strong effect on weeds
same,chromatographic logP,[3],2.54
"N#C/N=C1\SCCN1Cc1cc(C(F)(F)F)ccc1C(=O)O [Example (II-2), 2-[(2-cyanoimino-1,3-thiazolidin-3-yl)methyl]-4-trifluoro-methylbenzoic acid]",chromatographic logP,[3],2.01
"COC(=O)c1ccc(C(F)(F)F)cc1CN1CCS/C1=N\C#N [Example (IIa-2), methyl 2-[(2-cyanoimino-1,3-thiazolidin-3-yl)methyl]-4-trifluoromethylbenzoate]",chromatographic logP,[3],2.53

# — patent publication US20040097376A1, “Substituted aryl ketones and their use as herbicides” (priority 2000, published 2004)
